The source of these data is patent publication US12377035B2, “Peptides for inhibiting cholinergic calcitonin gene-related peptide (CGRP) and acetylcholine (ACH) release or inhibiting sensitization-mediated by TRPV1-mediated excitability in sensory neurons and methods of use thereof” (AZIENDE CHIMICHE RIUNITE ANGELINI FRANCESCO—A.C.R.A.F. …, priority 2018, dated 2025).

Residues, ends and D or L forms follow the SMILES beside them. *: point of attachment. Palmitoyl = CCCCCCCCCCCCCCCC(=O)*

Format in all cases: cell-based
The test system of series [1] is CGRP induced-release on peptidergic sensory neurons (dorsal root ganglia). Description: Inhibition of capsaicin-induced CGRP release on cultured sensory neurons (CGRP EIA). Conditions: 1 hour, 1 μM capsaicin 10 min. The method, then: The induction of the release of calcitonin-gene related peptide (CGRP) with capsaicin enables direct measurement of neuronal exocytosis (Meng J. et al., J. Cell. Sci. (2007) 15; 120(Pt 16):2864-74, and Meng J. et al., Mol. Neurobiol. (2014); 50(2):574-88).
The tested peptides were evaluated by measuring their capability of inhibiting CGRP induced-release on peptidergic sensory neurons. Dorsal root ganglia were seeded (50.000 cells/well) in a 96-well plate previously coated with poly-L-lysine and laminin. After 48 hours seeding, cells were incubated with Hank's Balanced salt solution containing peptides of invention at 20, 50 or 100 μM for 1 hour. Next, cells were stimulated for 10 min with 1 μM capsaicin at 37° C. Then, CGRP content was determined in supernatants using colorimetric based CGRP EIA (Spi-Bio Inc) following manufacturer's instructions. Absorbance measurements (405 nm) were standardized with regard to the maximum signal detected with capsaicin stimulation in vehicle treated cells. Inhibition values of CGRP release were calculated as percentages by considering maximum signal to capsaicin-induced release and minimum as non-stimulated cells. Table D details inhibition values of […] obtained for the peptides of invention.

The subject of series [2] is acetylcholine release, human neuroblastoma cell line differentiated to cholinergic neuronal phenotype. Description: Inhibition of KCl-induced acetylcholine release in a neuroblastoma cell line (Amplex Red). Particulars: for % Ach release inhibition: 50 mM KCl. How it is done: To determine the compound of the invention effects on acetylcholine release, a human neuroblastoma cell line (50.000 cells/well) was used. Cells were differentiated to cholinergic neuronal phenotype for 4 days. Then, cells were pre-incubated for 60 minutes with the compounds (between 0.1 and 100 μM) as acetyl- or palmitoyl-form and conjugated with trifluoroacetate (TFA) or acetate salt. Afterwards, acetylcholine release was induced by membrane depolarization evoked by 15 minutes incubation with 50 mM KCl. Acetylcholine level in supernatants was quantified by using Amplex® Red Acetylcholine Assay Kit (Thermofisher) following manufacturer's instructions. […] Fluorescence (Ex 530 nm/Em 590 nm) was measured in FluorStar equipment. Acetylcholine content was normalized to the total protein content using BCA assay (Pierce) following manufacturer's instructions. Fluorescence measurements were normalized to the maximum signal detected with KCl stimulation in vehicle treated cells. Vesicle exocytosis disruption by the compounds of the invention lead to a decrease of acetylcholine release (Table E).

Series [3] has as its system human epidermal keratinocytes (HEKa). Description: MTT cell viability assay on epidermal keratinocytes. Conditions: for % inhibition cell viability: HEKa, 24 hours. The method, then:
(§1) This example evaluated effects of the peptides of invention on human epidermal keratinocytes and dermal fibroblasts. Cell viability was determined with the 3-(4,5-dimethyl-2-thiazolyl)-2,5-diphenyl-2H-tetrazolium bromide (MTT) assay. The MTT assay is a colorimetric reaction based on the capacity of the mitochondrial dehydrogenase enzyme to break and transform the tetrazolium rings of MTT. Epidermal keratinocytes (HEKa) were seeded in a previously coated 96 well-plate at 50-60% confluence in 100 μL of supplemented corresponding medium. Dermal fibroblasts (HDFa) were seeded in a 96 well-plate at 70% confluence in 100 μL supplemented medium. For both cell lines, 24 hours after seeding, medium was replaced by fresh supplemented medium containing peptides dissolved at concentration range between 0.1 and 200 μM. All test substances were incubated for 24 hours at 37° C. and 5% CO2. Afterwards, medium was replaced by 0.5 mg/ml of MTT solution for 4 hours in complete medium. Then, medium was carefully removed and 150 μL/well of DMSO were added to solubilize formazan crystals. Plate was protected from light, shaken for 60 seconds and optical density was measured at 570 nm with a reference filter of 620 nm. Table F details effects of peptides of invention on keratinocytes and fibroblasts cell viability expressed as percentage of inhibition.

The test system of series [4] is human dermal fibroblasts (HDFa). Description: MTT cell viability assay on dermal fibroblasts. Particulars: for % inhibition cell viability: HDFa, 24 hours. The method, then:
as §1

Consider `CCCCCCCCCCCCCCCC(=O)N[C@@H](CCSC)C(=O)N[C@@H](CCC(N)=O)C(=O)N[C@H](C(=O)N[C@@H](Cc1c[nH]c2ccccc12)C(=O)N[C@@H](CC(C)C)C(=O)N[C@@H](CCCNC(=N)N)C(=O)N[C@@H](CCSC)C(=O)N[C@@H](Cc1c[nH]c2ccccc12)C(=O)N[C@H](C(=O)N[C@@H](CC(=O)O)C(=O)N[C@@H](Cc1ccc(O)cc1)C(=O)N[C@@H](CCCNC(=N)N)C(=O)N[C@@H](C)C(=O)N[C@H](C(N)=O)[C@@H](C)O)[C@@H](C)CC)C(C)C` [SEQ ID NO: 2 palmitoyl, MQVWLRMWIDYRAT] (Palmitoyl-MQVWLRMWIDYRAT-NH2), for which the “% CGRP release inhibition” value is listed as 35.5% in series [1] (peptide 20 μM) and 53.9% in series [1] (peptide 50 μM). For the same compound, the “% Ach release inhibition” value in series [2] (TFA salt, 5 μM) is on record as −46.1%; in series [2] (TFA salt, 10 μM), −35.1%; in series [2] (TFA salt, 50 μM), 20.6%. The “% inhibition cell viability” value in series [3] (0.1 μM) was found to be 12.1%; in series [3] (0.5 μM), 20.9%; in series [3] (1 μM), 25.6%; in series [3] (5 μM), 36.9%; in series [3] (10 μM), 36.5%; in series [3] (50 μM) it was 32.5%. In addition, the “% inhibition cell viability” value in series [4] (0.1 μM) came to 30.8%; in series [4] (0.5 μM) it was 42.9%; in series [4] (1 μM) it was 45.8%; in series [4] (5 μM) it was 47.3%; in series [4] (10 μM) it was 47.1%; in series [4] (50 μM), 35.3%.

Regarding `CCCCCCCCCCCCCCCC(=O)N[C@@H](CCCNC(=N)N)C(=O)N[C@@H](CCCNC(=N)N)C(=O)N[C@H](C(=O)N[C@H](C(=O)N[C@@H](CC(C)C)C(=O)N[C@H](C(=O)N[C@@H](CC(N)=O)C(=O)N[C@@H](CC(N)=O)C(=O)N[C@H](C(=O)N[C@@H](CC(C)C)C(N)=O)[C@@H](C)CC)C(C)C)C(C)C)C(C)C` [SEQ ID NO: 3 palmitoyl, RRVVLVNNIL] (Palmitoyl-RRVVLVNNIL-NH2), the “% CGRP release inhibition” value came out at 34.0% in series [1] (peptide 20 μM) and 74.8% in series [1] (peptide 50 μM). The “% Ach release inhibition” value in series [2] (Acetate salt, 0.1 μM) is listed as 57.0%; in series [2] (Acetate salt, 1 μM) it was 92.5%; in series [2] (Acetate salt, 10 μM) it was 86.7%; in series [2] (TFA salt, 5 μM) it was 75.4%; in series [2] (TFA salt, 10 μM), 81.8%; in series [2] (TFA salt, 50 μM) it was 82.8%. For the same compound, the “activity on ACh release (in words)” value in series [2] (lowest concentration tested 0.1 μM) is “active”. The “% inhibition cell viability” value in series [3] (0.1 μM) was −3.8%; in series [3] (0.5 μM), −0.9%; in series [3] (1 μM), 11.7%; in series [3] (5 μM) it was 9.9%; in series [3] (10 μM), 22.4%; in series [3] (50 μM), 24.8%. Moreover, the “% inhibition cell viability” value was 6.0% in series [4] (0.1 μM); 15.5% in series [4] (0.5 μM); 8.7% in series [4] (1 μM); 25.7% in series [4] (5 μM); 27.2% in series [4] (10 μM); 24.3% in series [4] (50 μM). In series [3] (at 1 µM or below), the “effect on keratinocyte viability (in words)” value is “did not modify keratinocyte and fibroblast viability”. The “effect on fibroblast viability (in words)” value in series [4] (at 1 µM or below) is “did not modify keratinocyte and fibroblast viability”.

Take `CCCCCCCCCCCCCCCC(=O)N[C@@H](CC(C)C)C(=O)N[C@@H](CCCNC(=N)N)C(=O)N[C@H](C(=O)N[C@@H](CCC(N)=O)C(=O)N[C@@H](CCSC)C(=O)N[C@H](C(=O)N[C@@H](CC(N)=O)C(=O)N[C@@H](CCSC)C(=O)N[C@@H](Cc1ccccc1)C(=O)N[C@@H](CC(C)C)C(N)=O)C(C)C)C(C)C` [SEQ ID NO: 4 palmitoyl, LRVQMVNMFL] (Palmitoyl-LRVQMVNMFL-NH2): the “% Ach release inhibition” value in series [2] (TFA salt, 5 μM) is reported as 26.4%; in series [2] (TFA salt, 50 μM) it was 83.0%. Also, the “% inhibition cell viability” value is −6.2% in series [3] (0.1 μM); 1.0% in series [3] (0.5 μM); −7.6% in series [3] (1 μM); 7.0% in series [3] (5 μM); 18.0% in series [3] (10 μM); 34.2% in series [3] (50 μM). Further, the “% inhibition cell viability” value in series [4] (0.1 μM) is given as 15.2%; in series [4] (0.5 μM), 26.9%; in series [4] (1 μM) it was 34.2%; in series [4] (5 μM), 42.6%; in series [4] (10 μM), 40.9%; in series [4] (50 μM) it was 37.7%. The “effect on keratinocyte viability (in words)” value in series [3] (assessed below 50 μM) is on record as “did not modify keratinocyte viability”.

Take `CCCCCCCCCCCCCCCC(=O)N[C@@H](Cc1c[nH]c2ccccc12)C(=O)N[C@@H](CCC(=O)O)C(=O)N[C@@H](CCC(N)=O)C(=O)N[C@@H](CCC(=O)O)C(=O)N[C@@H](Cc1ccccc1)C(=O)N[C@@H](CC(C)C)C(=O)N[C@@H](CCCNC(=N)N)C(=O)N[C@@H](CCCNC(=N)N)C(N)=O` [SEQ ID NO: 5 palmitoyl, WEQEFLRR] (Palmitoyl-WEQEFLRR-NH2): the “% Ach release inhibition” value in series [2] (TFA salt, 0.1 μM) stood at 16.4%; in series [2] (TFA salt, 1 μM) it was 16.1%; in series [2] (TFA salt, 5 μM), 25.1%; in series [2] (TFA salt, 10 μM) it was 24.7%; in series [2] (TFA salt, 50 μM), 17.9%. The “% inhibition cell viability” value in series [3] (1 μM) is given as −2.9%; in series [3] (5 μM) it was −5.5%; in series [3] (10 μM) it was −6.3%; in series [3] (50 μM) it was −24.3%; in series [4] (1 μM) it was −0.2%; in series [4] (5 μM) it was 10.3%. The “% inhibition cell viability” value is listed as 7.6% in series [4] (10 μM) and 18.0% in series [4] (50 μM).

Take “Ac-WEQEFLRR-NH2 [SEQ ID NO: 5 acetyl, WEQEFLRR]”: the “% Ach release inhibition” value is recorded as “around 40%” in series [2] (Acetate salt, 0.1 μM); 19.0% in series [2] (TFA salt, 0.1 μM); 22.0% in series [2] (TFA salt, 1 μM); 52.8% in series [2] (TFA salt, 10 μM); 51.5% in series [2] (TFA salt, 50 μM); 81.6% in series [2] (TFA salt, 100 μM). The “% inhibition cell viability” value in series [3] (1 μM) is −5.7%; in series [3] (5 μM) it was 0.8%; in series [3] (10 μM), 4.2%; in series [3] (50 μM), 4.3%; in series [3] (100 μM), 10.4%; in series [3] (200 μM), 23.7%. For the same compound, the “% inhibition cell viability” value in series [4] (1 μM) turned out to be 9.3%; in series [4] (5 μM), 10.0%; in series [4] (10 μM), 12.1%; in series [4] (50 μM), 10.0%; in series [4] (100 μM), 15.0%; in series [4] (200 μM), 14.7%. The “effect on cell viability (in words)” value is listed as “did not modify cell viability” in series [3] (human epidermal keratinocytes, up to 200 μM) and “did not modify cell viability” in series [4] (dermal fibroblast, up to 200 μM).
